{"source": "patent US20240415918A1", "about": "“Polypeptide and its use as a CCK receptor agonist/antagonist” (Centre for Regenerative Medicine & Health, Hong Kong …, priority 2021, published 2024)", "key": {"memory-deficient mice": {"system": "memory-deficient mice", "assay": "Morris water maze, memory-deficient mice", "type": "in vivo", "conditions": "intraperitoneal injection, CCK4 four times a day 10 days, HT compounds once a day 8 days", "excerpt": "Adult memory-deficient mice were housed under standard conditions with free access to food and water. Our Morris water maze experiment for testing memory-deficient mice mainly included two parts: positioning navigation experiment and space exploration experiment. The experimental methods were the same as Example 5. We randomized memory-deficient mice into six groups, with the first group given intraperitoneal injection of the CCK4 solution, the second group given intraperitoneal injection of the solvent of CCK4 solution as a control, the third group given intraperitoneal injection of the compound HT-267 solution, the fourth group given intraperitoneal injection of the compound HT-177 solution, the fifth group given intraperitoneal injection of the compound HT-178 solution, and the sixth group given intraperitoneal injection of the solvent of compound solution as a control. In the positioning navigation experiment, the treatment and training methods of the first and the second groups were the same as those of the first and second groups in Example 5, that is, four times of treatment a day, four times of training a day, for a total of 10 days of training. The treatment and training methods of the third to sixth groups were the same as the third and fourth groups in Example 5, that is, one treatment a day, four times of training a day, for a total of 8 days of training. In the space exploration experiment, the spatial memory ability of mice was tested in the same way for each group."}, "[1]": {"conditions": "mouse, in vivo; cited from earlier work"}, "[2]": {"conditions": "male, KM, mouse, in vivo, iv, 1 mg/kg"}, "[3]": {"system": "tri-transgenic Alzheimer's mice (3×Tg-AD)", "assay": "Morris water maze, Alzheimer's mice", "type": "in vivo", "conditions": "intraperitoneal injection", "excerpt": "Adult male tri-transgenic Alzheimer's mice (3×Tg-AD) were housed under standard conditions with free access to food and water. Our Morris water maze experiment for testing Alzheimer's mice mainly included two parts: positioning navigation experiment and space exploration experiment. The positioning navigation experiment lasted for 8-10 days, and the mice were put into the water four times a day from four entry points facing the pool wall, and the time they spent in finding the hidden platform under the water surface (evasion latency) was recorded. The space exploration experiment was to remove the platform after the positioning navigation experiment, and then put the mice into the pool, record their swimming tracks within one minute, investigate the memory of the mice on the original platform, and calculate the proportion of exploration duration of the mice in the quadrant where the original platform was located (target quadrant). Alzheimer's mice were confirmed to have memory deficiency in the Morris water maze experiment, showing not only a longer evasion latency for positioning the hidden platform in the positioning navigation experiment, but also a worse memory backtracking ability in the space exploration experiment. We randomized Alzheimer's mice into four groups, with the first group given intraperitoneal injection of the CCK4 solution, the second group given intraperitoneal injection of the solvent of CCK4 solution as a control, the third group given intraperitoneal injection of the compound HT-267 solution, and the fourth group given intraperitoneal injection of the solvent of HT-267 solution as a control."}, "senile wild-type mice": {"system": "senile wild-type mice", "assay": "Morris water maze, senile wild-type mice", "type": "in vivo, mice (C57BL/6)", "conditions": "intraperitoneal injection"}}}
{"smiles": "CSCC[C@H](NC(=O)[C@@H](N)Cc1c[nH]c2ccccc12)C(=O)N[C@@H](CC(=O)O)C(=O)N[C@@H](Cc1ccccc1)C(N)=O", "note": "[CCK4, Trp-Met-Asp-Phe-NH2, reference compound]", "values": [{"measurement": "proportion of exploration duration in the target quadrant vs control", "setting": "memory-deficient mice", "result": "significantly higher than that in the control group"}, {"measurement": "half-life", "setting": "[1]", "result": "less than 5 minutes"}, {"measurement": "concentration in blood samples (below detection limitation)", "setting": "[2]", "result": "< 50", "unit": "ng/mL"}, {"measurement": "proportion of exploration duration in the target quadrant vs control", "setting": "[3]", "result": "significantly higher than the control group"}, {"measurement": "spatial exploration tracks in space exploration experiment", "setting": "[3]", "result": "more spatial exploration tracks at the original position of the platform"}, {"measurement": "evasion latency in positioning navigation experiment vs control", "setting": "[3]; CCK4 four times a day 10 days, HT-267 once a day 8 days", "result": "shorter than that of the control group"}, {"measurement": "evasion latency in positioning navigation experiment vs control", "setting": "senile wild-type mice", "result": "shorter than that of the control group"}, {"measurement": "spatial exploration tracks in space exploration experiment", "setting": "senile wild-type mice", "result": "more spatial exploration tracks at the original position of the platform"}]}
